Laboratory results taken from paper PMC12162926, “A novel strategy for identifying hepatotoxic constituents in traditional Chinese medicine using dose-normalized intracellular accumulation as a cytotoxicity indicator: a case study of Jinlingzi San” (Frontiers in Pharmacology, 2025).

Legend:
L-02 cells [1] = test: Intracellular identification of L-02 cell-uptake components by LC–MS/MS; type: in vitro ADME, human; conditions: L-02 exposed to JLZS-containing medium 6.5 mg/mL for 2 h
Protocol: The powder of 25 g FT and 25 g RC was evenly blended and then refluxed twice with six-fold 50% ethanol (1: 6, w/v) for 1 h; the collected filtrate was evaporated to dryness and further dissolved in DMSO, after filtering using the 0.22-µm cellulose acetate membrane. JLZS-containing medium (6.5 mg/mL) was freshly prepared by diluting the filtrate with RPMI-1640. Likewise, RC-containing medium was freshly prepared in the same method independently.
L-02 cells were seeded on 9-cm-diameter cell culture plates; after ∼80% confluent, the cultured cells were incubated with 6.5 mg/mL JLZS-containing medium. After 2-h exposure, L-02 cells were quickly washed free of culture medium with cold PBS (−) twice and harvested with 1 mL of 0.25% trypsin-EDTA for cell isolation. The cell suspension (∼5 × 10^6 cells) was spun down, and the cells were further washed twice in cold PBS (−). Then, 200 µL of methanol was used to lyse the collected cells with vortex mixing for 1 min. The cell lysates were centrifuged at 12,000 rpm for 4 min, and 10 μL of the centrifugal supernatant was injected into the LC–MS/MS system for identified analysis.
The LC–MS/MS system consisted of a Thermo TSQ Quantum Ultra triple-quadrupole mass spectrometer equipped with an electrospray ionization source (San Jose, CA, United States). LCquan quantitation software (version 2.5.6, Thermo Fisher Scientific, Waltham, MA, USA) was used to control the LC–MS/MS system for data acquisition and analysis. Analytes and IS separation were conducted using a Waters XTerra® MS C18 column (3.0 mm × 50 mm, 5 µm) maintained at 20 °C. By injecting 5 µL samples with a flow rate of 0.2 mL/min, chromatographic separation was achieved using a mobile phase of 0.1% formic acid–water (A) and methanol (B) via gradient elution, 0.0–2.0 min, 35%–50% B; 2.0–2.1 min, 50%–55% B; 2.1–2.5 min, 55%–60% B; 2.5–14.0 min, 60% B. The analytes and IS were detected in the ESI source by polarity switching from positive for 0.0–8.0 min to negative-ion modes for 8.5–14.0 min in a single run with multiple reaction monitoring (MRM).

L-02 cells [2] = test: Intracellular accumulation in L-02 cells by LC–MS/MS; type: in vitro ADME, human; conditions: for Intracellular concentration: L-02, JLZS extracts 6.5 mg/mL, n = 6
L-02 cells [3] = test: Cell growth inhibition assay (CCK-8); type: cell-based, human; conditions: L-02, 24 h exposure, single compounds
[4] = Stability of analytes in cell lysates (LC–MS/MS method validation); type: physicochemical; conditions: n=3; for Post-preparation stability RE%: 4 ℃, 24 h at autosampler; for Short-term stability RE%: 12 h at room temperature; for Long-term stability RE%: -80℃ for a month; for Freeze-thaw stability RE%: three freeze-thaw
Protocol: The stability of seven analytes including short-term stability (12 h at room temperature), post-preparation stability at 4 ℃ (24 h at autosampler), freeze-thaw stability (three freeze-thaw stability) and long-term stability (-80℃ for a month) was tested by analyzing three replicates at low and high QC levels during various sample storage and handling process.

[5] = design: method as in Gu et al., 2021; conditions: pharmacokinetic level, JLZS vs single herb; ref Gu et al., 2021; cited from earlier work

Question: Which results are given for `CC(=O)O[C@@H]1C[C@H](O)[C@@]23CO[C@@H](O)[C@]1(C)[C@@H]2C[C@@H](O)[C@]1(C)[C@@H]3C(=O)[C@H](OC(C)=O)[C@@]2(C)[C@H](c3ccoc3)C[C@H]3O[C@]321` [TSN, toosendanin]?
Answer: detection in cell lysates (L-02 cells [1]): found in the cell lysates; Intracellular concentration (L-02 cells [2]; time 0.25 h): 10.4 ± 1.1 ng/mL; Intracellular concentration (L-02 cells [2]; time 0.5 h): 13.6 ± 4.0 ng/mL; Intracellular concentration (L-02 cells [2]; time 1 h): 38.5 ± 10.2 ng/mL; Intracellular concentration (L-02 cells [2]; time 1.5 h): 32.8 ± 13.6 ng/mL; Intracellular concentration (L-02 cells [2]; time 2 h): 20.1 ± 2.8 ng/mL; Intracellular concentration (L-02 cells [2]; time 3 h): 23.8 ± 4.4 ng/mL; Intracellular concentration (L-02 cells [2]; time 5 h): 26.4 ± 9.2 ng/mL; Intracellular concentration (L-02 cells [2]; time 8 h): 15.5 ± 3.4 ng/mL; exposure time at highest intracellular concentration (L-02 cells [2]; L-02 exposed to JLZS 6.5 mg/mL): 1 h; IC50 (cell viability) (L-02 cells [3]): not detected IC50 values within the set concentration range; Post-preparation stability RE% ([4]; high QC level): 0.1%; Post-preparation stability RE% ([4]; low QC level): 7.6%; Short-term stability RE% ([4]; high QC level): -0.1%; Short-term stability RE% ([4]; low QC level): 8.0%; Long-term stability RE% ([4]; high QC level): 8.6%; Long-term stability RE% ([4]; low QC level): 10.2%; Freeze-thaw stability RE% ([4]; high QC level): -4.0%; Freeze-thaw stability RE% ([4]; low QC level): 6.2%; elimination in the JLZS group compared with the single-herb group [5]: decreased significantly
